Source: ChEMBL document CHEMBL4257529, “Antifungal amphiphilic kanamycins: new life for an old drug” (Medchemcomm, 2018)
Values after ≈ are worked out from the molar mass of the structure shown.

Legend:
[1] = test system: Cladosporium cladosporioides; assay: Antifungal activity against Cladosporium cladosporioides by microbroth dilution assay; type: functional
Fusarium oxysporum = assay: Antifungal activity against Fusarium oxysporum by microbroth dilution assay; type: functional
Rhizopus stolonifer = assay: Antifungal activity against Rhizopus stolonifer by microbroth dilution assay; type: functional
Staphylococcus aureus [2] = assay: Antibacterial activity against Staphylococcus aureus ATCC 25923 by microbroth dilution assay; type: functional
Escherichia coli [3] = assay: Antibacterial activity against Escherichia coli TG1 by microbroth dilution assay; type: functional
[4] = test system: Globisporangium irregulare; assay: Antifungal activity against Pythium irregulare by microbroth dilution assay; type: functional
Phytophthora nicotianae = assay: Antifungal activity against Phytophthora parasitica by microbroth dilution assay; type: functional
Rhodotorula mucilaginosa = assay: Antifungal activity against Rhodotorula pilimanae by microbroth dilution assay; type: functional
Curvularia brachyspora = assay: Antifungal activity against Curvularia brachyspora by microbroth dilution assay; type: functional
Pseudomonas aeruginosa = assay: Antibacterial activity against Pseudomonas aeruginosa ATCC 27853 by microbroth dilution assay; type: functional
Enterococcus faecalis = assay: Antibacterial activity against Enterococcus faecalis ATCC 29212 by microbroth dilution assay; type: functional
Klebsiella pneumoniae [5] = assay: Antibacterial activity against Klebsiella pneumoniae ATCC 700603 by microbroth dilution assay; type: functional
Globisporangium ultimum = assay: Antifungal activity against Pythium ultimum by microbroth dilution assay; type: functional
Candida albicans [6] = assay: Antifungal activity against Candida albicans by microbroth dilution assay; type: functional
Ulocladium = assay: Antifungal activity against Ulocladium spp. by microbroth dilution assay; type: functional; conditions: Alternaria sect. Ulocladium
Saccharomyces cerevisiae = assay: Antifungal activity against Saccharomyces cerevisiae W303 by microbroth dilution assay; type: functional
Botrytis cinerea = assay: Antifungal activity against Bortrytis cinerea by microbroth dilution assay; type: functional
Fusarium graminearum [7] = assay: Antifungal activity against Fusarium graminearum by microbroth dilution assay; type: functional
[8] = Hemolytic activity in sheep RBC relative to control; type: ADME, cell-based, Ovis aries, Erythrocyte; conditions: sheep red blood cells (erythrocytes), read-out: Activity
Phoma = assay: Antifungal activity against Phoma spp. by microbroth dilution assay; type: functional
Klebsiella pneumoniae [9] = assay: Antibacterial activity against Klebsiella pneumoniae […] by microbroth dilution assay; type: functional
Escherichia coli [10] = assay: Antibacterial activity against Escherichia coli ATCC 25922 after 12 to 18 hrs; type: functional
Aspergillus flavus = assay: Antifungal activity against Aspergillus flavus after 12 to 18 hrs; type: functional
Staphylococcus aureus [11] = assay: Antibacterial activity against Staphylococcus aureus ATCC 25923 after 12 to 18 hrs; type: functional
Fusarium graminearum [12] = assay: Antifungal activity against Fusarium graminearum after 12 to 18 hrs; type: functional
Candida albicans [13] = assay: Antifungal activity against Candida albicans B-311; type: functional
Cryptococcus neoformans [14] = assay: Antifungal activity against Cryptococcus neoformans 90-26; type: functional
Candida albicans [15] = assay: Antifungal activity against resistant Candida albicans ATCC 64124; type: functional
Candida parapsilosis [16] = assay: Antifungal activity against sensitive Candida parapsilosis; type: functional; conditions: Lodderomyces parapsilosis
Fusarium graminearum [17] = assay: Antifungal activity against Fusarium graminearum B4-5A strain A after 48 hrs by microdilution assay; type: functional
Candida parapsilosis [18] = assay: Antifungal activity against resistant Candida parapsilosis; type: functional; conditions: Lodderomyces parapsilosis
Fusarium graminearum [19] = assay: Antifungal activity against Fusarium graminearum B4-5A strain D after 48 hrs by microdilution assay; type: functional
Cryptococcus neoformans [20] = assay: Antifungal activity against Cryptococcus neoformans H99; type: functional; conditions: var grubii H99
Cryptococcus neoformans [21] = assay: Antifungal activity against Cryptococcus neoformans 94-2586; type: functional
Candida albicans [22] = assay: Antifungal activity against Candida albicans 94-2181; type: functional
Candida tropicalis = assay: Antifungal activity against Candida tropicalis 95-41; type: functional
Fusarium graminearum [23] = assay: Antifungal activity against Fusarium graminearum B4-5A strain C after 48 hrs by microdilution assay; type: functional
Candida albicans [24] = assay: Antifungal activity against Candida albicans ATCC 10231; type: functional
Candida albicans [25] = assay: Antifungal activity against sensitive Candida albicans MYA-2876; type: functional
Fusarium graminearum [26] = assay: Antifungal activity against Fusarium graminearum B4-5A strain E after 48 hrs by microdilution assay; type: functional
Clavispora lusitaniae = assay: Antifungal activity against Candida lusitaniae 95-767; type: functional
Fusarium graminearum [27] = assay: Antifungal activity against Fusarium graminearum B4-5A strain B after 48 hrs by microdilution assay; type: functional
Diutina rugosa = assay: Antifungal activity against Candida rugosa 95-967; type: functional

CCCCCCCCO[C@H]1[C@H](O)[C@@H](O)[C@@H](O[C@@H]2[C@@H](O)[C@H](O[C@H]3O[C@H](CN)[C@@H](O)[C@H](O)[C@H]3N)[C@@H](N)C[C@H]2N)O[C@@H]1C
MIC [1]: 31.3 µg/mL (≈ 53.9 µM)
MIC (Fusarium oxysporum): 7.8 µg/mL (≈ 13.4 µM)
MIC (Rhizopus stolonifer): 31.3 µg/mL (≈ 53.9 µM)
MIC (Staphylococcus aureus [2]): 250 µg/mL (≈ 431 µM)
MIC (Escherichia coli [3]): 125 to 250 µg/mL (≈ 215 to 431 µM)
MIC [4]: 15.6 µg/mL (≈ 26.9 µM)
MIC (Phytophthora nicotianae): 15.6 µg/mL (≈ 26.9 µM)
MIC (Rhodotorula mucilaginosa): 7.8 µg/mL (≈ 13.4 µM)
MIC (Curvularia brachyspora): 31.3 µg/mL (≈ 53.9 µM)
MIC (Pseudomonas aeruginosa): 250 µg/mL (≈ 431 µM)
MIC (Enterococcus faecalis): 125 to 250 µg/mL (≈ 215 to 431 µM)
MIC (Klebsiella pneumoniae [5]): 250 µg/mL (≈ 431 µM)
MIC (Globisporangium ultimum): 15.6 µg/mL (≈ 26.9 µM)
MIC (Candida albicans [6]): 31.3 µg/mL (≈ 53.9 µM)
MIC (Ulocladium): 7.8 µg/mL (≈ 13.4 µM)
MIC (Saccharomyces cerevisiae): 31.3 µg/mL (≈ 53.9 µM)
MIC (Botrytis cinerea): 31.3 µg/mL (≈ 53.9 µM)
MIC (Fusarium graminearum [7]): 7.8 µg/mL (≈ 13.4 µM)
hemolysis [8]: < 20%
MIC (Phoma): 31.3 µg/mL (≈ 53.9 µM)
MIC (Klebsiella pneumoniae [9]): 250 µg/mL (≈ 431 µM)

CCCCOC[C@H]1O[C@H](O[C@@H]2[C@@H](O)[C@H](O[C@H]3O[C@H](CN)[C@@H](O)[C@H](O)[C@H]3O)[C@@H](N)C[C@H]2N)[C@H](O)[C@@H](N)[C@@H]1OCCCC
MIC (Escherichia coli [10]): ≥ 250 µg/mL
MIC (Aspergillus flavus): > 500 µg/mL
MIC (Staphylococcus aureus [11]): ≥ 250 µg/mL
MIC (Fusarium graminearum [12]): 125 µg/mL (≈ 209 µM)

NC[C@H]1O[C@H](O[C@H]2[C@H](O)[C@@H](O[C@H]3O[C@H](CO)[C@@H](O)[C@H](N)[C@H]3O)[C@H](N)C[C@@H]2N)[C@H](N)[C@@H](O)[C@@H]1O [BEKANAMYCIN]
MIC (Fusarium oxysporum): > 250 µg/mL
MIC (Staphylococcus aureus [2]): < 0.98 µg/mL
MIC (Escherichia coli [3]): 1.95 µg/mL (≈ 4.03 µM)
MIC (Rhodotorula mucilaginosa): > 250 µg/mL
MIC (Pseudomonas aeruginosa): 1.95 µg/mL (≈ 4.03 µM)
MIC (Enterococcus faecalis): < 0.98 µg/mL
MIC (Klebsiella pneumoniae [5]): 1.95 µg/mL (≈ 4.03 µM)
MIC (Candida albicans [6]): > 250 µg/mL
MIC (Saccharomyces cerevisiae): > 250 µg/mL
MIC (Fusarium graminearum [7]): > 250 µg/mL
MIC (Klebsiella pneumoniae [9]): 1.95 µg/mL (≈ 4.03 µM)

OC(Cn1cncn1)(Cn1cncn1)c1ccc(F)cc1F [FLUCONAZOLE]
MIC (Candida albicans [13]): > 25 µg/mL
MIC (Cryptococcus neoformans [14]): > 0.195 µg/mL
MIC (Candida albicans [15]): > 200 µg/mL
MIC (Candida parapsilosis [16]): 0.12 µg/mL (≈ 0.392 µM)
MIC (Fusarium graminearum [17]): > 200 µg/mL
MIC (Candida parapsilosis [18]): > 16 µg/mL
MIC (Fusarium graminearum [19]): > 12.5 µg/mL
MIC (Cryptococcus neoformans [20]): 1.56 µg/mL (≈ 5.09 µM)
MIC (Cryptococcus neoformans [21]): 1.56 µg/mL (≈ 5.09 µM)
MIC (Candida albicans [22]): > 12.5 µg/mL
MIC (Candida tropicalis): > 25 µg/mL
MIC (Fusarium graminearum [23]): > 2 µg/mL
MIC (Candida albicans [24]): 25 µg/mL (≈ 81.6 µM)
MIC (Candida albicans [25]): 1.56 µg/mL (≈ 5.09 µM)
MIC (Fusarium graminearum [26]): > 25 µg/mL
MIC (Clavispora lusitaniae): 1.56 µg/mL (≈ 5.09 µM)
MIC (Fusarium graminearum [27]): > 25 µg/mL
MIC (Diutina rugosa): > 0.78 µg/mL
